Data from PubChem BioAssay (NCI).
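Cells were grown in 96-well plates and exposed to each compound for 48 hours at five concentrations; endpoints were interpolated linearly between bracketing concentrations, or set to the highest concentration if not reached. TGI is the concentration that stops growth completely.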

How the values were obtained:
Assay in all cases: NCI tumour cell line growth inhibition, 48 h
[1] = test system: A498 renal
[2] = test system: A549 NSCLC
[3] = test system: CAKI-1 renal
[4] = test system: CCRF-CEM leukemia
[5] = test system: COLO 205 colon
[6] = test system: DLD-1 colon
[7] = test system: DMS 114 small cell lung
[8] = test system: DMS 273 small cell lung
[9] = test system: EKVX NSCLC
[10] = test system: HCC-2998 colon
[11] = test system: HCT-116 colon
[12] = test system: HCT-15 colon
[13] = test system: HL-60(TB) leukemia
[14] = test system: HOP-18 NSCLC
[15] = test system: HOP-62 NSCLC
[16] = test system: HOP-92 NSCLC
[17] = test system: HT29 colon
[18] = test system: IGROV1 ovarian
[19] = test system: K-562 leukemia
[20] = test system: KM12 colon
[21] = test system: KM20L2 colon
[22] = test system: LOX IMVI melanoma
[23] = test system: M19-MEL melanoma
[24] = test system: MALME-3M melanoma
[25] = test system: MCF7 breast
[26] = test system: MOLT-4 leukemia
[27] = test system: NCI-H226 lung
[28] = test system: NCI-H23 lung
[29] = test system: NCI-H460 lung
[30] = test system: NCI-H522 lung
[31] = test system: NCI/ADR-RES ovarian
[32] = test system: OVCAR-3 ovarian
[33] = test system: OVCAR-4 ovarian
[34] = test system: OVCAR-5 ovarian
[35] = test system: OVCAR-8 ovarian
[36] = test system: P388 leukemia
[37] = test system: P388/ADR leukemia
[38] = test system: RPMI-8226 leukemia
[39] = test system: RXF 393 renal
[40] = test system: SF-268 CNS
[41] = test system: SF-295 CNS
[42] = test system: SF-539 CNS
[43] = test system: SK-MEL-2 melanoma
[44] = test system: SK-MEL-28 melanoma
[45] = test system: SK-MEL-5 melanoma
[46] = test system: SK-OV-3 ovarian
[47] = test system: SN12C renal
[48] = test system: SN12K1 renal
[49] = test system: SNB-19 CNS
[50] = test system: SNB-75 CNS
[51] = test system: SNB-78 CNS
[52] = test system: SW-620 colon
[53] = test system: U251 CNS
[54] = test system: UACC-257 melanoma
[55] = test system: UACC-62 melanoma
[56] = test system: UO-31 renal
[57] = test system: XF 498 CNS
[58] = test system: 786-0 renal
[59] = test system: ACHN renal
[60] = test system: LXFL 529 NSCLC
[61] = test system: M14 melanoma
[62] = test system: RXF-631 renal
[63] = test system: TK-10 renal
[64] = test system: SR leukemia

NC(Cc1cc(I)c(O)c(I)c1)C(=O)O (stereo unspecified)
TGI [1]: > 500 µM | TGI [2]: > 500 µM | TGI [3]: 249 µM | TGI [4]: > 500 µM | TGI [5]: > 500 µM | TGI [6]: > 500 µM | TGI [7]: > 293 µM | TGI [8]: > 322 µM | TGI [9]: > 316 µM | TGI [10]: > 500 µM | TGI [11]: > 500 µM | TGI [12]: > 362 µM | TGI [13]: > 500 µM | TGI [14]: > 500 µM | TGI [15]: > 500 µM | TGI [16]: > 107 µM | TGI [17]: > 393 µM | TGI [18]: > 500 µM | TGI [19]: > 500 µM | TGI [20]: > 500 µM | TGI [21]: > 500 µM | TGI [22]: > 361 µM | TGI [23]: > 393 µM | TGI [24]: > 500 µM | TGI [25]: > 500 µM | TGI [26]: > 500 µM | TGI [27]: > 500 µM | TGI [28]: > 356 µM | TGI [29]: > 349 µM | TGI [30]: 130 µM | TGI [31]: > 316 µM | TGI [32]: > 500 µM | TGI [33]: 332 µM | TGI [34]: > 500 µM | TGI [35]: > 500 µM | TGI [36]: 160 µM | TGI [37]: > 364 µM | TGI [38]: > 500 µM | TGI [39]: 449 µM | TGI [40]: > 500 µM | TGI [41]: > 500 µM | TGI [42]: > 500 µM | TGI [43]: > 500 µM | TGI [44]: > 500 µM | TGI [45]: > 500 µM | TGI [46]: > 500 µM | TGI [47]: > 500 µM | TGI [48]: 246 µM | TGI [49]: > 500 µM | TGI [50]: > 330 µM | TGI [51]: > 500 µM | TGI [52]: > 500 µM | TGI [53]: > 500 µM | TGI [54]: > 354 µM | TGI [55]: > 357 µM | TGI [56]: > 500 µM | TGI [57]: > 500 µM

OCC(O)C(O)c1nn(-c2ccccc2)c2nc3cc(Cl)c(Cl)cc3nc12 (stereo unspecified)
TGI [58]: 68.4 µM | TGI [2]: 57.4 µM | TGI [59]: 75.6 µM | TGI [3]: 41.5 µM | TGI [4]: > 100 µM | TGI [5]: 86.4 µM | TGI [6]: > 100 µM | TGI [7]: 71.4 µM | TGI [8]: 56.6 µM | TGI [9]: > 100 µM | TGI [10]: 86.5 µM | TGI [11]: 54.4 µM | TGI [12]: > 100 µM | TGI [13]: 50.9 µM | TGI [14]: > 100 µM | TGI [15]: > 100 µM | TGI [16]: 82.1 µM | TGI [17]: 56 µM | TGI [18]: 90.7 µM | TGI [19]: > 100 µM | TGI [20]: 81.2 µM | TGI [21]: 75.8 µM | TGI [22]: 58.1 µM | TGI [60]: 70.9 µM | TGI [61]: > 100 µM | TGI [23]: > 100 µM | TGI [24]: 44.1 µM | TGI [26]: > 100 µM | TGI [27]: 73.6 µM | TGI [28]: > 100 µM | TGI [29]: 82.1 µM | TGI [30]: > 100 µM | TGI [32]: 92.1 µM | TGI [33]: 93.5 µM | TGI [34]: 58.4 µM | TGI [35]: 69.2 µM | TGI [38]: > 100 µM | TGI [39]: 47.4 µM | TGI [62]: 91.5 µM | TGI [40]: 80.5 µM | TGI [41]: > 100 µM | TGI [42]: 71 µM | TGI [43]: 74.1 µM | TGI [44]: > 100 µM | TGI [45]: > 100 µM | TGI [46]: > 100 µM | TGI [47]: > 100 µM | TGI [49]: > 100 µM | TGI [50]: 52 µM | TGI [51]: > 100 µM | TGI [52]: > 100 µM | TGI [63]: 48.4 µM | TGI [53]: > 100 µM | TGI [54]: > 100 µM | TGI [55]: > 100 µM | TGI [56]: 63.5 µM | TGI [57]: > 100 µM

c1ccc2c(CNCCCCCCNCc3cccc4ccccc34)cccc2c1
TGI [58]: 26.1 µM | TGI [1]: 33.6 µM | TGI [2]: 32.3 µM | TGI [59]: 29.5 µM | TGI [3]: 20.7 µM | TGI [4]: 9.62 µM | TGI [5]: 3.12 µM | TGI [6]: 13.8 µM | TGI [7]: 20.2 µM | TGI [8]: 26.6 µM | TGI [9]: 26.4 µM | TGI [11]: 4.35 µM | TGI [12]: 19.8 µM | TGI [13]: 3.45 µM | TGI [14]: 29.1 µM | TGI [15]: 30.6 µM | TGI [16]: 20.5 µM | TGI [17]: 5.04 µM | TGI [18]: 30.7 µM | TGI [19]: 3.22 µM | TGI [20]: 15.1 µM | TGI [21]: 6.74 µM | TGI [22]: 3.5 µM | TGI [60]: 3.39 µM | TGI [61]: 3.25 µM | TGI [23]: 14.3 µM | TGI [24]: 3.42 µM | TGI [26]: 6.46 µM | TGI [27]: 31.6 µM | TGI [28]: 30.1 µM | TGI [29]: 3.75 µM | TGI [30]: 9.78 µM | TGI [32]: 30.6 µM | TGI [33]: 28.9 µM | TGI [34]: 29.3 µM | TGI [35]: 29 µM | TGI [38]: 6.79 µM | TGI [39]: 6.9 µM | TGI [62]: 9.46 µM | TGI [40]: 25.7 µM | TGI [41]: 24.8 µM | TGI [42]: 3.48 µM | TGI [43]: 3.02 µM | TGI [44]: 3.29 µM | TGI [45]: 19.9 µM | TGI [46]: 31.5 µM | TGI [47]: 25.3 µM | TGI [50]: 6.68 µM | TGI [51]: 23.9 µM | TGI [64]: 4.47 µM | TGI [52]: 14.1 µM | TGI [63]: 25.2 µM | TGI [53]: 22.8 µM | TGI [54]: 3.17 µM | TGI [55]: 21.6 µM | TGI [56]: 23.9 µM | TGI [57]: 7.26 µM
